By IC50 is commonly meant the concentration at which inhibition is half-maximal. As a reminder, the AUC(0-inf) is the area under the concentration-time curve extrapolated to infinity. Lower therefore signals less exposure. By AUC(0-t) is commonly meant the area under the concentration-time curve up to a stated or last time point. Read a high AUC(0-t) as high exposure. Broadly, the Cmax is the maximum level reached in the sampled fluid or tissue. By MRT inf is commonly meant the average time that molecules of a dose stay in the body. Broadly, the Tmax is the time from dosing to the highest level. One may read the clearance as the volume of plasma or blood freed of the substance per unit of time. Broadly, the half-life is the time in which the quantity being followed falls by half.

SMILES strings stand for the structures.

Experimental findings from US20220202822A1, “8-SUBSTITUTED ARYL VINYL XANTHINE DERIVATIVES AND USES THEREOF” (SUNSHINE LAKE PHARMA CO., LTD., priority 2019, published 2022) are described below.

Data set [1] addresses T1, human adenosine A2A receptor (Homo sapiens, UniProt P29274).
T1 construct: expressed in transfected cells; host or cells: HEK-293
The data set is described as follows: Antagonizing effect on human adenosine A2A receptor (cAMP, TR-FRET, NECA-stimulated HEK-293 cells). In kind it is cell-based. The following applies: inhibition of cAMP produced by NECA (3 nM), HEK-293 cells expressing human recombinant A2A receptor. The protocol:
The experimental system uses human recombinant adenosine A2A receptor, which is stably expressed in HEK-293 cell line. HEK-293 cells were inoculated into culture plate at a density of 1.25×10^5 cells /mL. The medium was changed by modified HBSS solution with pH 7.4, different concentrations of test compounds (10 μM, 1 μM, 0.1 μM, 10 nM, 1 nM, 0.1 nM) and solvents (PBS with 0.1% DMSO) were added, and the plate was incubated at 37° C. for 10 min. cAMP (cyclic adenosine monophosphate) concentration in culture medium was detected by TR-FRET method. NECA was used as a positive control in this experiment, (1) test compounds alone were used to stimulate cells to produce a certain amount of cAMP, and then NECA (0.1 μM) alone was used to stimulate cells to produce a certain amount of cAMP. A test compound is considered to have agonistic activity on adenosine A2A receptor if the test compound alone stimulates cells to produce cAMP more than 50% of the amount of cAMP produced by NECA (0.1 μM) alone. (2) All cells were first incubated with test compounds and then stimulated with NECA (3 nM). In addition, NECA (3 nM) alone was used to stimulate cells to produce a certain amount of cAMP. […] IC50 was calculated using MathIQ™ (ID Business Solutions Ltd., UK) through nonlinear, least squares regression equation analysis.

A short description of data set [2]: Pharmacokinetic evaluation in rats after intravenous or intragastric administration. In kind it is in vivo, SD rats. The following applies: for AUC(0-inf) / AUC(0-t) / Cmax / MRT inf / Tmax / clearance / half-life: SD, rat, plasma. The protocol:
The LC-MS/MS system for analysis includes the Agilent 1200 series vacuum degasser, a quaternary pump, an orifice plate sampler, a thermostatted column oven, and an API4000Qtrap triple quadrupole mass spectrometer with an electrospray ionization source (ESI).
Waters ACQUITY UPLC CSH C18, 2.1×50 mm, 1.7 μm column was used for analysis, and 0.8 μL of sample was injected. Analytical conditions: mobile phase was H2O+2 mM HCOONH4 (ammonium formate)+0.1% FA (formic acid) (mobile phase A) and MeOH (methanol)+2 mM HCOONH4 (ammonium formate)+0.1% FA (formic acid) (mobile phase B). Flow rate was 0.7 mL/min.
The experiment was divided into two groups: one was administered by intravenous injection, and the other was administered by intragastric administration. The compound of the present invention was administered to a test animal (overnight fast for 12 hours) in the form of 10% DMA (heating)+60% PEG400+30% saline solution. For the group of intravenous administration, the administration dose was 1 mg/kg, and vein blood samples (0.3 mL) were collected at the time points of 0.083, 0.25, 0.5, 1.0, 2.0, 5.0, 7.0 and 24 h after administration. EDTA-K2 as anticoagulant was added into the blood vessel. The plasma solutions were collected by centrifuging each blood sample at 3,000 rpm or 4,000 rpm for 10 minutes and kept at −20° C. or −70° C. For the group of intragastric administration, the administration dose was 5 mg/kg, and vein blood samples (0.3 mL) were collected at the time points of 0.25, 0.5, 1.0, 2.0, 5.0, 7.0 and 24 h after administration. EDTA-K2 as anticoagulant was added into the blood vessel. The plasma solutions were collected by centrifuging each blood sample at 3,000 rpm or 4,000 rpm for 10 minutes and kept at −20° C. or −70° C.
20 μL of plasma was taken, 120 μL of IS working solution was added to the plasma, and the plasma mixture was vortexed for 2 min. The mixed solution was then centrifuged at 12,000 rpm for 2 min. 100 μL of the supernatant was taken, 110 μL of MeOH/H2O (v/v=1/1) was added, and the solution was vortexed for 2 minutes, then 5 μL was taken for inj ection into the LC-MS/MS system.

Data set [3] is described as follows: Pharmacokinetic evaluation in beagles after intravenous or intragastric administration. It is filed as in vivo, beagle. The protocol: The LC/MS/MS system for analysis includes the Agilent 1200 series vacuum degasser, a quaternary pump, an orifice plate sampler, a thermostatted column oven, and an API4000Qtrap triple quadrupole mass spectrometer with an electrospray ionization source (ESI).
Waters xbridge C18, 2.1×50 mm, 3.5 μm column was used for analysis, and 0.5 μL of sample was injected. Analytical conditions: mobile phase consisting of mobile phase A (H2O+2 mM HCOONH4 (ammonium formate) +0.1% FA (formic acid)) and mobile phase B (MeOH (methanol)+2 mM HCOONH4 (ammonium formate)+0.1% FA (formic acid)). Flow rate was 0.7 mL/min.
The experiment was divided into two groups: one was administered by intravenous injection, and the other was administered by intragastric administration. The compound of the present invention was administered to a test animal in the form of 10% DMA (heating)+60% PEG400+30% saline solution. For the group of intravenous administration, the administration dose was 1 mg/kg, and vein blood samples (0.3 mL) were collected at the time points of 0.083, 0.25, 0.5, 1.0, 2.0, 4.0, 6.0, 8.0 and 24 h after administration. The plasma solutions were collected (EDTA-K2 as anticoagulant) by centrifuging each blood sample at 3,000 rpm or 4,000 rpm for 10 minutes and then kept at −20° C. or −70° C. For the group of intragastric administration, the administration dose was 5 mg/kg, and vein blood samples (0.3 mL) were collected at the time points of 0.25, 0.5, 1.0, 2.0, 5.0, 7.0 and 24 h after administration. The plasma solutions were collected (EDTA-K2 as anticoagulant) by centrifuging each blood sample at 3,000 rpm or 4,000 rpm for 10 minutes and then kept at −20° C. or −70° C.
10 μL of plasma was taken, 120 μL of IS working solution was added to the plasma, and the plasma mixture was vortexed for 2 min. The mixed solution was then centrifuged at 12,000 rpm for 2 min. 80 μL of the supernatant was taken, 140 μL of methanol/H2O (v/v =1/1) was added, and the solution was vortexed for 2 minutes, then 1.0 μL was taken for injection into the LC-MS/MS system. LC-MS/MS method was used to detect the concentration of target compounds, and non-compartment model was used to calculate pharmacokinetic parameters, and the results were shown in table C.

Setting [4] is: po, intragastric administration, 5 mg/kg.
Setting [5] is: intragastric administration, 5 mg/kg.
Setting [6] is: beagle, dog, plasma, intravenous injection, 1 mg/kg.
Setting [7] is: beagle, dog, plasma, po, intragastric administration, 5 mg/kg.

T1 sequence (P29274 whole entry): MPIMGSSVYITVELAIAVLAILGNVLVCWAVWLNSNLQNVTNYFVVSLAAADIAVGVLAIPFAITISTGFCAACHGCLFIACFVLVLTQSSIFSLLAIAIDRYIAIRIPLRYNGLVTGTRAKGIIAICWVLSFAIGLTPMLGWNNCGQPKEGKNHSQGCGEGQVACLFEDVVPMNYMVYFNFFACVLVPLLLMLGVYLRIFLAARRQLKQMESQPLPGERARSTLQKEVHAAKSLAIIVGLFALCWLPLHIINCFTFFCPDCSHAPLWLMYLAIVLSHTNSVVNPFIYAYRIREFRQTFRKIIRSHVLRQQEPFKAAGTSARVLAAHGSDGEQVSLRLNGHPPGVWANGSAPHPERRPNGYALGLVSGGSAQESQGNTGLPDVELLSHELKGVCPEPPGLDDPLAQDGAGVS

Regarding `CCn1c(=O)c2c(nc(/C=C/c3ccc(OC4CCS(=O)(=O)CC4)nc3)n2C)n(CC)c1=O` [Example 4, (E)-8-(2-(6-((1,1-dioxidotetrahydro-2H-thiopyran-4-yl)oxy)pyridin-3-yl)vinyl)-1,3-diethyl-7-methyl-1H-purine-2,6(3H,7H)-dione], in data set [1], the IC50 was found to be 2990 nM.
In the case of `CCn1c(=O)c2c(nc(/C=C/c3ccc(OC4CCS(=O)(=O)CC4)c(F)c3)n2C)n(CC)c1=O` [Example 2, (E)-8-(4-((1,1-dioxidotetrahydro-2H-thiopyran-4-yl)oxy)-3-fluorostyryl)-1,3-diethyl-7-methyl-1H-purine-2,6(3H,7H)-dione], the IC50 in data set [1] is 3250 nM. In data set [2] (intravenous injection, 1 mg/kg), this compound had an area under the curve AUC(0-inf) of 4230 ng·h/mL, an AUC(0-t) of 4180 ng·h/mL, a maximum concentration (Cmax) of 985 ng/mL and a mean residence time MRT inf of 4.35 h. Further, in data set [2] (intravenous injection, 1 mg/kg), the time to peak (Tmax) stood at 0.083 h, the clearance amounted to 3.94 mL/min/kg, the half-life was 4 h and the Vss is 1.03 kg⁻¹. Also, in data set [2] (setting [4]), the AUC(0-inf) worked out at 24400 ng·h/mL, the AUC(0-t) was 23700 ng·h/mL, the concentration peaked (Cmax) at 3110 ng/mL and the mean residence time (MRT inf) is 5.94 h. In data set [2] (setting [4]), the time to peak (Tmax) is 1.67 h and the half-life was 4.77 h. The compound also returned a F in data set [2] (setting [5]) of 110.2%.
Take `CCn1c(=O)c2c(nc(/C=C/c3ccc(OC4CCC(F)(F)CC4)cc3)n2C)n(CC)c1=O` [Example 6, (E)-8-(4-((4,4-difluorocyclohexyl)oxy)styryl)-1,3-diethyl-7-methyl-1H-purine-2,6(3H,7H)-dione]: the half-inhibitory concentration (IC50) in data set [1] was found to be 1480 nM.
`CCn1c(=O)c2c(nc(/C=C/c3ccc(OC4CCS(=O)(=O)CC4)cc3)n2C)n(CC)c1=O` [Example 1, (E)-8-(4-((1,1-dioxidotetrahydro-2H-thiopyran-4-yl)oxy)styryl)-1,3-diethyl-7-methyl-1H-purine-2,6(3H,7H)-dione]: in data set [1], the half-inhibitory concentration (IC50) was 2510 nM. In data set [2] (intravenous injection, 1 mg/kg), this compound gave an AUC(0-inf) of 4360 ng·h/mL, an exposure AUC(0-t) of 4340 ng·h/mL, a peak concentration (Cmax) of 879 ng/mL and an MRT inf of 4.26 h. In data set [2] (intravenous injection, 1 mg/kg), the time to peak (Tmax) amounted to 0.083 h, the clearance was determined as 3.82 mL/min/kg, the half-life was 3.35 h and the Vss worked out at 0.977 kg⁻¹. In data set [2] (setting [4]), this compound had an AUC(0-inf) of 32300 ng·h/mL, an exposure AUC(0-t) of 32100 ng·h/mL, a maximum concentration (Cmax) of 3660 ng/mL and a mean residence time (MRT inf) of 5.2 h. In data set [2] (setting [4]), the Tmax worked out at 1.67 h and the half-life was 3.39 h. This compound also came in with a F in data set [2] (setting [5]) of 148.2%. Besides, in data set [3] (setting [6]), the AUC(0-inf) was found to be 56300 ng·h/mL, the area under the curve AUC(0-t) is 25400 ng·h/mL, the Cmax was determined as 1870 ng/mL and the MRT inf amounted to 41.5 h. In data set [3] (setting [6]), the Tmax was 1 h, the clearance was found to be 0.296 mL/min/kg and the half-life was 30.5 h. In data set [3] (setting [7]), this compound showed an AUC(0-inf) of 114000 ng·h/mL, an AUC(0-t) of 40300 ng·h/mL, a Cmax of 2530 ng/mL and an MRT inf of 54 h. In data set [3] (setting [7]), the Tmax worked out at 4.67 h and the half-life is 36.9 h. This compound showed a F in data set [3] (setting [5]) of 38.7%. For the same compound, the Vss in data set [3] (intravenous injection, 1 mg/kg) was 0.737 kg⁻¹.
